Read-outs that look alike come from different tables or passages of the source. Some results are limits rather than exact numbers.

The values below come from article PMC10974284, “Discovery of Novel 4-Hydroxyquinazoline Derivatives: In Silico, In Vivo and In Vitro Studies Using Primary PARPi-Resistant Cell Lines” (Molecules, 2024).

One data set concerns HCT-15 cell lines. Description: MTT cytotoxicity assay, HCT-15. Format: cell-based, human. Particulars: Homo sapiens, read-out: IC50 HCT-15. The method, then: (§1) After treatment with target compounds at the different concentrations, MTT was added and the cells were incubated for another 4 h. The IC50 values of the selected compounds were evaluated by the same method. The cells were treated with compounds at different concentrations. The OD values were detected using a microplate reader at 570 nm.

For the next data set, the system named is HCC1937 cell lines. Description: MTT cytotoxicity assay, HCC1937. The settings on record: Homo sapiens, read-out: IC50 HCC1937. The class given is cell-based, human. On the procedure:
as §1

Where [1] appears, read: HCT-15, 72 h (3-Days) drug exposure, MTT.
[2] abbreviates: HCC1937, 72 h (3-Days) drug exposure, MTT.

Turning to `O=C(Nc1cc(C(F)(F)F)cc(C(F)(F)F)c1)N1CCN(Cc2nc3ccccc3c(=O)[nH]2)CC1` [A39, N-(3,5-bis(trifluoromethyl)phenyl)-4-((4-oxo-3,4-dihydroquinazolin-2-yl)methyl)piperazine-1-carboxamide], the melting point lay in the range of 204.2 to 206.1 °C. The IC50 with HCT-15 cell lines (setting [1]) stood at 21 ± 2.33 µM. Besides, in the data set with HCC1937 cell lines (setting [2]), the IC50 was 42.2 ± 2.77 µM.

Consider `Cc1ccc(Cl)cc1NC(=O)N1CCCN(Cc2nc3ccccc3c(=O)[nH]2)C1` [B7, N-(5-chloro-2-methylphenyl)-3-((4-oxo-3,4-dihydroquinazolin-2-yl)methyl)tetrahydropyrimidine-1(2H)-carboxamide], for which the melting point lay within 197.3 to 198.7 °C. Also, the 50% inhibitory concentration (IC50) in the data set with HCT-15 cell lines (setting [1]) turned out to be 13.7 ± 1.21 µM. Besides, the IC50 in the data set on HCC1937 cell lines (setting [2]) turned out to be 57.9 ± 3.33 µM.

The molecule `Cc1ccc(Cl)cc1NC(=O)N1C[C@H]2CC[C@@H](C1)N2Cc1nc2ccccc2c(=O)[nH]1` [B5, (1R,5S)-N-(5-chloro-2-methylphenyl)-8-((4-oxo-3,4-dihydroquinazolin-2-yl)methyl)-3,8-diazabicyclo[3.2.1]octane-3-carboxamide] gave a melting point of 189.5 to 191.7 °C. In the data set on HCT-15 cell lines (HCT-15, 72 h), the half-inhibitory concentration (IC50) amounted to 11 ± 2.4 µM. For the same molecule, the IC50 in the data set on HCC1937 cell lines (HCC1937, 72 h) was 9.61 ± 1.35 µM.

Molecule `Cc1ccc(Cl)cc1NC(=O)N1C2CC1CN(Cc1nc3cc(Cl)ccc3c(=O)[nH]1)C2` [C2, N-(5-chloro-2-methylphenyl)-3-((7-chloro-4-oxo-3,4-dihydroquinazolin-2-yl)methyl)-3,6-diazabicyclo[3.1.1]heptane-6-carboxamide] yielded a melting point of 192.3 to 194.1 °C. Besides, the half-maximal inhibitory concentration (IC50) with HCT-15 cell lines (HCT-15, 72 h) was 23 ± 1.93 µM. Moreover, the IC50 with HCC1937 cell lines (HCC1937, 72 h) was determined as 32.4 ± 2.66 µM.

On to `Cc1ccc(Cl)cc1NC(=O)N1CCN(Cc2nc3ccccc3c(=O)[nH]2)CC1C` (stereo not drawn) [B2, N-(5-chloro-2-methylphenyl)-2-methyl-4-((4-oxo-3,4-dihydroquinazolin-2-yl)methyl)piperazine-1-carboxamide], for which the melting point was in the range of 189.5 to 190.8 °C. Also, the half-maximal inhibitory concentration (IC50) with HCT-15 cell lines (setting [1]) was determined as 6.37 ± 2.83 µM. For the same molecule, the IC50 in the data set on HCC1937 cell lines (setting [2]) stood at 5.89 ± 0.5 µM.

With `Cc1cccc(NC(=O)N2CCN(Cc3nc4ccccc4c(=O)[nH]3)CC2)c1` [A11, 4-((4-oxo-3,4-dihydroquinazolin-2-yl)methyl)-N-(m-tolyl)piperazine-1-carboxamide], the melting point is 197.8 to 200.2 °C. In the data set on HCT-15 cell lines (setting [1]), the IC50 turned out to be 25.6 ± 1.17 µM. Also, the concentration for half-maximal inhibition (IC50) in the data set on HCC1937 cell lines (setting [2]) is above 50 µM.

For `Cc1ccc(F)c(NC(=O)N2CCN(Cc3nc4ccccc4c(=O)[nH]3)CC2)c1` [A23, N-(2-fluoro-5-methylphenyl)-4-((4-oxo-3,4-dihydroquinazolin-2-yl)methyl)piperazine-1-carboxamide], the melting point was 199.5 to 201.1 °C. Moreover, in the data set on HCT-15 cell lines (setting [1]), the IC50 was found to be 26 ± 1.67 µM. Moreover, in the data set on HCC1937 cell lines (setting [2]), the IC50 turned out to be 44.2 ± 3.47 µM.

Turning to `O=C(Nc1ccc(Br)cc1)N1CCN(Cc2nc3ccccc3c(=O)[nH]2)CC1` [A9, N-(4-bromophenyl)-4-((4-oxo-3,4-dihydroquinazolin-2-yl)methyl)piperazine-1-carboxamide], the melting point lay within 187.8 to 188.9 °C. Further, in the data set with HCT-15 cell lines (setting [1]), the IC50 is above 50 µM. Also, in the data set on HCC1937 cell lines (setting [2]), the IC50 was above 50 µM.

As for `O=C(Nc1cccc(C(F)(F)F)c1)N1CCN(Cc2nc3ccccc3c(=O)[nH]2)CC1` [A14, 4-((4-oxo-3,4-dihydroquinazolin-2-yl)methyl)-N-(3-(trifluoromethyl)phenyl)piperazine-1-carboxamide], the melting point fell in the range of 197.8 to 200.3 °C. Also, the IC50 with HCT-15 cell lines (setting [1]) came out at 20 ± 1.15 µM. In addition, the IC50 in the data set on HCC1937 cell lines (setting [2]) worked out at 17.7 ± 0.77 µM.

`Cc1cc(F)ccc1NC(=O)N1CCN(Cc2nc3ccccc3c(=O)[nH]2)CC1` [A29, N-(4-fluoro-2-methylphenyl)-4-((4-oxo-3,4-dihydroquinazolin-2-yl)methyl)piperazine-1-carboxamide]: the melting point was 197.6 to 200.1 °C. For the same molecule, in the data set with HCT-15 cell lines (setting [1]), the IC50 came to 29.8 ± 1.57 µM. Besides, the IC50 in the data set on HCC1937 cell lines (setting [2]) is above 50 µM.

On to `COc1ccccc1NC(=O)N1CCN(Cc2nc3ccccc3c(=O)[nH]2)CC1` [A16, N-(2-methoxyphenyl)-4-((4-oxo-3,4-dihydroquinazolin-2-yl)methyl)piperazine-1-carboxamide], for which the melting point fell in the range of 188.5 to 190.7 °C. The IC50 in the data set with HCT-15 cell lines (setting [1]) is 30.7 ± 2.13 µM. Besides, in the data set on HCC1937 cell lines (setting [2]), the concentration for half-maximal inhibition (IC50) was above 50 µM.

`O=C(Nc1ccccc1Cl)N1CCN(Cc2nc3ccccc3c(=O)[nH]2)CC1` [A4, N-(2-chlorophenyl)-4-((4-oxo-3,4-dihydroquinazolin-2-yl)methyl)piperazine-1-carboxamide] displayed a melting point of 197.9 to 199.6 °C. The IC50 with HCT-15 cell lines (setting [1]) was determined as 19.1 ± 1.12 µM. In addition, the IC50 in the data set on HCC1937 cell lines (setting [2]) was determined as 14.7 ± 1.67 µM.

Regarding `O=C(Nc1cccc(F)c1F)N1CCN(Cc2nc3ccccc3c(=O)[nH]2)CC1` [A19, N-(2,3-difluorophenyl)-4-((4-oxo-3,4-dihydroquinazolin-2-yl)methyl)piperazine-1-carboxamide], the melting point was 188.2 to 189.9 °C. The IC50 in the data set with HCT-15 cell lines (setting [1]) amounted to 19.1 ± 0.59 µM. Moreover, in the data set on HCC1937 cell lines (setting [2]), the IC50 is above 50 µM.

With `Cc1ccc(Cl)c(NC(=O)N2CCN(Cc3nc4ccccc4c(=O)[nH]3)CC2)c1` [A27, N-(2-chloro-5-methylphenyl)-4-((4-oxo-3,4-dihydroquinazolin-2-yl)methyl)piperazine-1-carboxamide], the melting point is 196.7 to 198.7 °C. Also, the IC50 with HCT-15 cell lines (setting [1]) was determined as 25.4 ± 1.48 µM. For the same molecule, the IC50 in the data set with HCC1937 cell lines (setting [2]) turned out to be 17.5 ± 0.66 µM.

For `Cc1ccc(Cl)cc1NC(=O)N1C2CCC1CN(Cc1nc3ccccc3c(=O)[nH]1)C2` [B6, N-(5-chloro-2-methylphenyl)-3-((4-oxo-3,4-dihydroquinazolin-2-yl)methyl)-3,8-diazabicyclo[3.2.1]octane-8-carboxamide], the melting point fell in the range of 192.3 to 193.6 °C. In addition, in the data set with HCT-15 cell lines (HCT-15, 72 h), the IC50 is 7.27 ± 1.28 µM. Moreover, the IC50 in the data set with HCC1937 cell lines (HCC1937, 72 h) was found to be 7.52 ± 1.37 µM.

Molecule `O=C(Nc1c(F)cccc1Cl)N1CCN(Cc2nc3ccccc3c(=O)[nH]2)CC1` [A25, N-(2-chloro-6-fluorophenyl)-4-((4-oxo-3,4-dihydroquinazolin-2-yl)methyl)piperazine-1-carboxamide] yielded a melting point of 198.4 to 199.8 °C. Besides, the IC50 with HCT-15 cell lines (setting [1]) was found to be 41.2 ± 1.44 µM. In addition, the 50% inhibitory concentration (IC50) in the data set on HCC1937 cell lines (setting [2]) was above 50 µM.

Molecule `Cc1ccc(Cl)cc1NC(=O)N1C[C@@H]2C[C@H]1CN2Cc1nc2ccccc2c(=O)[nH]1` [B3, (1S,4S)-N-(5-chloro-2-methylphenyl)-5-((4-oxo-3,4-dihydroquinazolin-2-yl)methyl)-2,5-diazabicyclo[2.2.1]heptane-2-carboxamide] showed a melting point of 191.1 to 192.4 °C. In the data set on HCT-15 cell lines (setting [1]), the IC50 came out at 12.5 ± 1.49 µM. Also, the IC50 with HCC1937 cell lines (setting [2]) worked out at 16.5 ± 0.94 µM.

As for `O=C(Nc1cccc(F)c1)N1CCN(Cc2nc3ccccc3c(=O)[nH]2)CC1` [A2, N-(3-fluorophenyl)-4-((4-oxo-3,4-dihydroquinazolin-2-yl)methyl)piperazine-1-carboxamide], the melting point was in the range of 189.5 to 192.1 °C. For the same molecule, the concentration for half-maximal inhibition (IC50) in the data set on HCT-15 cell lines (setting [1]) is 34.9 ± 2.23 µM. Further, the IC50 with HCC1937 cell lines (setting [2]) is above 50 µM.

`O=C(Nc1cccc(Br)c1)N1CCN(Cc2nc3ccccc3c(=O)[nH]2)CC1` [A8, N-(3-bromophenyl)-4-((4-oxo-3,4-dihydroquinazolin-2-yl)methyl)piperazine-1-carboxamide]: the melting point is 194.2 to 196.3 °C. In addition, the IC50 with HCT-15 cell lines (setting [1]) is 27.7 ± 2.56 µM. Also, in the data set on HCC1937 cell lines (setting [2]), the IC50 turned out to be 47.4 ± 2.96 µM.

The molecule `Cc1ccc(F)cc1NC(=O)N1CCN(Cc2nc3ccccc3c(=O)[nH]2)CC1` [A30, N-(5-fluoro-2-methylphenyl)-4-((4-oxo-3,4-dihydroquinazolin-2-yl)methyl)piperazine-1-carboxamide] registered a melting point of 201.1 to 202.8 °C. In addition, the IC50 in the data set on HCT-15 cell lines (setting [1]) was 18.3 ± 0.44 µM. Also, the IC50 in the data set on HCC1937 cell lines (setting [2]) was 39.5 ± 1.84 µM.

In turn, `Cc1ccc(Cl)cc1NC(=O)N1C2CC1CN(Cc1nc3ccc(F)cc3c(=O)[nH]1)C2` [C4, N-(5-chloro-2-methylphenyl)-3-((6-fluoro-4-oxo-3,4-dihydroquinazolin-2-yl)methyl)-3,6-diazabicyclo[3.1.1]heptane-6-carboxamide] came in with a melting point of 192.1 to 193.5 °C. In addition, the IC50 with HCT-15 cell lines (HCT-15, 72 h) came to 9.84 ± 0.63 µM. Further, the IC50 with HCC1937 cell lines (HCC1937, 72 h) was determined as 8.49 ± 0.71 µM.

The molecule `O=C(Nc1cc(F)ccc1F)N1CCN(Cc2nc3ccccc3c(=O)[nH]2)CC1` [A20, N-(2,5-difluorophenyl)-4-((4-oxo-3,4-dihydroquinazolin-2-yl)methyl)piperazine-1-carboxamide] returned a melting point of 202.1 to 204.2 °C. Besides, in the data set on HCT-15 cell lines (setting [1]), the IC50 came out at 33.1 ± 2.16 µM. Further, the IC50 in the data set on HCC1937 cell lines (setting [2]) stood at 41.7 ± 1.89 µM.

Take `Cc1ccc(Cl)cc1NC(=O)N1CCN(Cc2nc3ccccc3c(=O)[nH]2)CC1` [A32, N-(5-chloro-2-methylphenyl)-4-((4-oxo-3,4-dihydroquinazolin-2-yl)methyl)piperazine-1-carboxamide]: the melting point was 203.1 to 204.7 °C. Moreover, in the data set with HCT-15 cell lines (setting [1]), the IC50 stood at 10.9 ± 0.71 µM. In the data set on HCC1937 cell lines (setting [2]), the IC50 came to 11.3 ± 0.73 µM.

Molecule `O=C(Nc1cc(Cl)cc(Cl)c1)N1CCN(Cc2nc3ccccc3c(=O)[nH]2)CC1` [A35, N-(3,5-dichlorophenyl)-4-((4-oxo-3,4-dihydroquinazolin-2-yl)methyl)piperazine-1-carboxamide] yielded a melting point of 207.5 to 209.5 °C. Moreover, in the data set on HCT-15 cell lines (setting [1]), the IC50 was 21.2 ± 0.89 µM. Further, the IC50 with HCC1937 cell lines (setting [2]) is above 50 µM.

Molecule `O=C(Nc1cccc(Cl)c1)N1CCN(Cc2nc3ccccc3c(=O)[nH]2)CC1` [A5, N-(3-chlorophenyl)-4-((4-oxo-3,4-dihydroquinazolin-2-yl)methyl)piperazine-1-carboxamide] returned a melting point of 193.3 to 195.2 °C. The IC50 in the data set with HCT-15 cell lines (setting [1]) was 19.1 ± 0.79 µM. In addition, in the data set with HCC1937 cell lines (setting [2]), the IC50 stood at 25.9 ± 0.96 µM.

For `O=C(Nc1ccc(C(F)(F)F)cc1)N1CCN(Cc2nc3ccccc3c(=O)[nH]2)CC1` [A15, 4-((4-oxo-3,4-dihydroquinazolin-2-yl)methyl)-N-(4-(trifluoromethyl)phenyl)piperazine-1-carboxamide], the melting point is 198.8 to 200.6 °C. For the same molecule, the IC50 with HCT-15 cell lines (setting [1]) was 15.6 ± 0.56 µM. Moreover, the IC50 in the data set on HCC1937 cell lines (setting [2]) was above 50 µM.
